The values below come from paper PMC5641347, “Aii810, a Novel Cold-Adapted N-Acylhomoserine Lactonase Discovered in a Metagenome, Can Strongly Attenuate Pseudomonas aeruginosa Virulence Factors and Biofilm Formation” (Frontiers in Microbiology, 2017).

The test concerns T1, Aii810.
T1 construct: E. coli BL21(DE3), Ni-NTA
Briefly: p-nitrophenol release at […] nm, Michaelis-Menten fit. The conditions noted are these: 20°C, pH 6.5. The format is biochemical, uncultured bacterium.

Broadly, the Km is the concentration of substrate that gives half-maximal velocity. As to `CC(=O)Oc1ccc([N+](=O)[O-])cc1` [C2, ρ-nitrophenyl acetate], the Km came to 205 µM.
